Legend:
[1] = Blood plasma levels from Compound A implants in rats; format: in vivo; settings: one implant per rat, 17.5 mg Compound A
Procedure: Ten coextruded implants were prepared having a core comprising 50% of Compound A (as a salt) and 50% ethylene vinyl acetate, and a shell comprising 3% Compound A and 97% ethylene vinyl acetate. The implants measured 26 mm length×1.5 mm diameter, weighed 48 mg, and contained 17.5 mg Compound A. After extrusion, the implants were washed, dried, packaged and sterilized by E-beam irradiation at 25 KGy.
The implants were implanted into rats (one implant per rat), and blood plasma levels were measured. After an initial peak from drug on the implant surface, the rat plasma levels were sustained within a range of about 1.4 to about 4 ng/ml for about 2,000 hours (about 83 days).

[2] = system: mice challenged with 5′-guanidinonaltrindole (5′GNTI); test: Mouse itch model, 5′GNTI challenge, mouse prototype EVA implants; format: in vivo; settings: male C57BL/6 mice, 1 prototype implant (10 mg Compound A) per mouse
Procedure: Compound A implants were formulated in ethylene-vinyl acetate (EVA) matrices for testing in male C57BL/6 mice. Because of the small size of the mouse, test implant prototypes (25 mm×1.5 mm) containing a limited quantity of the drug (10 mg) were used for this mouse model study. […] After extrusion, the implant prototypes were washed, dried, packaged and sterilized by E-beam irradiation at 25 KGy.
Following the implantation of one Compound A implant in each mouse, the treated mice with drug-containing implants (N=5) and untreated control mice with placebo implants or sham surgery (N=7) were challenged with 5′-guanidinonaltrindole (5′GNTI) at Days 1, 14 and 28 post-implantation. Scratch events were monitored.

[3] = Mouse plasma concentration from EVA mouse prototype implants versus subcutaneous acute injection; format: in vivo; settings: male C57BL/6 mice, one prototype implant per mouse, compared with acute 0.3 mg/kg subcutaneous injection
Procedure: Male C57BL/6 mice were sampled for pharmacokinetic analysis following subcutaneous acute injection with Compound A in saline (0.3 mg/kg drug was administered, using an injection volume of 10 mL/kg), or following implantation with one Compound A implant in each mouse. The implants used were as described in Example 2.

[4] = system: mice challenged with the pruritogen 5′-GNTI; test: Scratching events in mice after 5′-GNTI challenge over an 84-day period, Compound A-containing implants; format: in vivo, mouse; settings: male C57BL/6 mice, one implant (26×2.6 mm, 60 mg Compound A), 5′GNTI 0.1 mg/kg s.c. on Days 28, 56 and 84, initial 30 minutes of observation
Procedure: Male C57BL/6 mice (8-14 wks old, N=7-8) were each implanted with one Compound A-containing implant (26×2.6 mm, 50% loading, 60 mg Compound A/implant). Controls were untreated mice or mice implanted with placebo (EVA-only) implants (N=5-7). On Days 28, 56 and 84 post-implantation, the mice were transferred to behavioral rooms during the light cycle, at least 2 hours prior to challenge with the pruritogen 5′-GNTI to minimize stress effects on grooming and movement. 5′GNTI (0.1 mg/kg) was subcutaneously injected just caudal to the head/neck, and the mice were immediately placed in an observation chamber (25×25 cm) with plexiglas walls and light-colored melamine flooring and video recorded from above for up to 90 minutes after pruritogen challenge, and then removed and placed back into their home cages in the housing colony. The video recordings were subsequently analyzed for the quantity of scratching behavior, classified as either a forepaw scratching bout behind the ears, or hind paw scratching bout of the flank/back of the animal, over the initial 30 minutes of observation.
(D28C=control mice at day 28, D28A=mice with Compound A implants at day 28, D56C=control mice at day 56, D56A=mice with Compound A implants at day 56, D84C=control mice at day 84, D84A=mice with Compound A implants at day 84).

CCCC[C@@H](NC(=O)[C@@H](Cc1ccccc1)NC(=O)[C@H](N)Cc1ccccc1)C(=O)N[C@H](CCCCN(C)C)C(=O)NCc1ccncc1 [Compound A]
time for which plasma levels were sustained [1]: 2000 hours and about 2,000 hours | scratching behavior at day 28 post-implantation ([2]; 5′GNTI challenge): returning to control levels | sustained itch suppression post-implantation ([2]; 5′GNTI challenge at Days 1, 14 and 28): up to 14 days | plasma concentrations of Compound A over the first 14 days post-implantation [3]: well above the levels estimated for therapeutic anti-pruritus activity | scratch events versus control mice [4]: reduced scratch events
